Results: PMC9080521, “Molecular basis of rutin inhibition of protein disulfide isomerase (PDI) by combined in silico and experimental methods” (RSC Advances, 2018)
≈ marks a conversion by molar mass, not a printed value. Where “and” joins values, the source holds several entries; their conditions need not be identical. Equal entries are not always repeated.

Columns and labels:
full-length human PDI = full-length human PDI (Homo sapiens, UniProt P07237); experiment: Fluorescence-based direct binding assay; conditions: protein 18 μM, excitation 430 nm, emission 530 nm, n=3, Standard Error 0.18 μM; read-out: IC50 (binding affinity, fluorescence)
Experimental: (§1) 2. Binding affinity (IC50) of rutin to human or murine MBP-fused PDI proteins The MBP-fused PDI proteins (18 μМ) were incubated with a gradient of 10 rutin’s concentrations differed by 2- or 3-fold and 3 repetitions in 384-well black plate at room temperature for 30 min before measurements. The total assay volume was filled to 100 μL using the assay buffer (pH 7.4) contains 150 mM NaCl, 20 mM Tris, 1 mM EDTA, 1 mM β-ME and 5% glycerin. The fluorescence emission spectrum of the mixture were measured with the excitation at 430 nm and the emission at 530 nm at room temperature on a BioTek Synergy microplate reader with a sensitivity of 100. The data were analyzed by GraphPad Prism (Fig. S3).

human MBP-PDI-b′x = molecular target: T1, human MBP-PDI-b′x (Homo sapiens, UniProt P07237); experiment: Fluorescence-based direct binding assay; conditions: protein 18 μM, excitation 430 nm, emission 530 nm, n=3, Standard Error 0.16 μM; read-out: IC50 (binding affinity, fluorescence)
T1 construct: The human MBP-PDI-b′x (235–369); His-tag; made in house; host or cells: E. coli BL21 (DE3)
Experimental: as §1

human MBP-PDI-b′xa′ = molecular target: T2, human MBP-PDI-b′xa′ (Homo sapiens, UniProt P07237); experiment: Fluorescence-based direct binding assay; conditions: protein 18 μM, excitation 430 nm, emission 530 nm, n=3, Standard Error 0.14 μM; read-out: IC50 (binding affinity, fluorescence)
T2 construct: MBP-PDI-b′xa′(235–479); His-tag; made in house; host or cells: E. coli BL21 (DE3)
Experimental: as §1

murine MBP-mPDI-b′x = molecular target: T3, murine MBP-mPDI-b′x (Mus musculus, UniProt P09103); experiment: Fluorescence-based direct binding assay; conditions: protein 18 μM, excitation 430 nm, emission 530 nm, n=3, Standard Error 0.15 μM; read-out: IC50 (binding affinity, fluorescence)
T3 construct: The murine MBP-mPDI-b′x (236–369); His-tag; made in house; host or cells: E. coli BL21 (DE3)
Experimental: as §1

murine MBP-mPDI-b′xa′ = molecular target: T4, murine MBP-mPDI-b′xa′ (Mus musculus, UniProt P09103); experiment: Fluorescence-based direct binding assay; conditions: protein 18 μM, excitation 430 nm, emission 530 nm, n=3, Standard Error 0.15 μM; read-out: IC50 (binding affinity, fluorescence)
T4 construct: MBP-mPDI-b′xa′ (236–477); His-tag; made in house; host or cells: E. coli BL21 (DE3)
Experimental: as §1

murine proteins (mPDI) = murine proteins (mPDI) (Mus musculus, UniProt P09103); experiment: Fluorescence-based direct binding assay, murine proteins as a group; conditions: murine MBP-mPDI proteins, read-out: binding affinities of murine proteins (IC50)
Experimental: as §1

MBP-PDI-b′xa′ E359A = molecular target: T5, MBP-PDI-b′xa′ E359A (Homo sapiens, UniProt P07237, E359A); experiment: Isothermal titration calorimetry (ITC); format: binding; conditions: 25 °C
T5 construct: MBP-PDI-b′xa′(235–479); His-tag; made in house; host or cells: E. coli BL21 (DE3)
Experimental: (§2) Microcalorimetry titration of rutin to PDI recombinant and mutant proteins used a MicroCal ITC200 microcalorimeter (GE Healthcare). PDI recombinant proteins, which concentration ranges from 25 μM to 50 μM, were added into the cell (about 300 μL). Rutin, with concentration ranging from 500 μM to 1 mM, was injected from syringe to titrate the protein in cell (almost 40 μL). The experiment was performed at 25 °C with a equilibration time of 10 min, the reference power was set to 6.25 μcal s^−1. The process including 25 injections, each of 1, 2 or 2.5 μL rutin, in a duration of 3 s, and the interval time between two injections was 180 s. Data was analyzed with MicroCal Origin (MicroCal).
(§3) Next, we resorted to a more sensitive method, isothermal titration calorimetry (ITC), to measure the direct binding. Due to the weak interaction, this method requires large amounts of high-purity protein samples (about 240 μL at 20–50 μM) to be titrated by the highest concentration of rutin (its water solubility of about 200 μM), so that the release of heat as a result of complex formation reached plateau phase rapidly and was enough to be measured. A problem we encountered is that the starting phase of the S-shape curve of heat measurement cannot always be resolved using the typical titration program of ITC, thus affecting the accuracy of dissociation constant (Kd) measurement from the S-shape ITC curve. This was due to the use of equal volume of small molecule titrant (∼2.5 μL) used in the typical ITC titration. Therefore, we established an optimized ITC titration scheme by using variable drop sizes, which started with small drops (1 μL at first ten times of injection) and ended with large drops (2 μL). We thus obtained S-shape ITC curves with well-defined upper and lower platforms (Fig. 5 and S6 ^†), which allowed the accurate measurements of Kd values.

MBP-PDI-b′xa′ E359K = molecular target: T6, MBP-PDI-b′xa′ E359K (Homo sapiens, UniProt P07237, E359K); experiment: Isothermal titration calorimetry (ITC); format: binding; conditions: 25 °C
T6 construct: MBP-PDI-b′xa′(235–479); His-tag; made in house; host or cells: E. coli BL21 (DE3)
Experimental: as §2, §3

MBP-PDI-b′xa′ H354A = molecular target: T7, MBP-PDI-b′xa′ H354A (Homo sapiens, UniProt P07237, H354A); experiment: Isothermal titration calorimetry (ITC); format: binding
T7 construct: MBP-PDI-b′xa′(235–479); His-tag; made in house; host or cells: E. coli BL21 (DE3)
Experimental: as §2, §3

MBP-PDI-b′xa′ K328E = molecular target: T8, MBP-PDI-b′xa′ K328E (Homo sapiens, UniProt P07237, K328E); experiment: Isothermal titration calorimetry (ITC); format: binding; conditions: 25 °C
T8 construct: MBP-PDI-b′xa′(235–479); His-tag; made in house; host or cells: E. coli BL21 (DE3)
Experimental: as §2, §3

MBP-PDI-b′xa′ L355R = molecular target: T9, MBP-PDI-b′xa′ L355R (Homo sapiens, UniProt P07237, L355R); experiment: Isothermal titration calorimetry (ITC); format: binding; conditions: 25 °C
T9 construct: MBP-PDI-b′xa′(235–479); His-tag; made in house; host or cells: E. coli BL21 (DE3)
Experimental: as §2, §3

wt MBP-PDI-b′xa′ = molecular target: T10, wt MBP-PDI-b′xa′ (Homo sapiens, UniProt P07237); experiment: Isothermal titration calorimetry (ITC); format: binding; conditions: 25 °C
T10 construct: MBP-PDI-b′xa′(235–479); His-tag; made in house; host or cells: E. coli BL21 (DE3)
Experimental: as §2, §3

Water solubility = format: physicochemical
PDI = tested on: PDI; design: method as in PMID 22565308, PMID 26240139; conditions: dose-dependent; cited from earlier work
[1] = tested on: platelet aggregation and fibrin generation; conditions: cited from earlier work
[2] = mouse models, dose of 0.5 mg kg^−1

T7 sequence (P07237 235-479 H354A): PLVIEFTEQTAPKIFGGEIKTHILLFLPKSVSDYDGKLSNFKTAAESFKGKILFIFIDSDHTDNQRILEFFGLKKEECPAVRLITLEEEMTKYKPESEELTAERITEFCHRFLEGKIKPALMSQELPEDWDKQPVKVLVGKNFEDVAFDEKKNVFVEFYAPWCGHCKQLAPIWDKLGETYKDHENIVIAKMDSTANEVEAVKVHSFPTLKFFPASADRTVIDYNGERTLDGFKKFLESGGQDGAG
T6 sequence (P07237 235-479 E359K): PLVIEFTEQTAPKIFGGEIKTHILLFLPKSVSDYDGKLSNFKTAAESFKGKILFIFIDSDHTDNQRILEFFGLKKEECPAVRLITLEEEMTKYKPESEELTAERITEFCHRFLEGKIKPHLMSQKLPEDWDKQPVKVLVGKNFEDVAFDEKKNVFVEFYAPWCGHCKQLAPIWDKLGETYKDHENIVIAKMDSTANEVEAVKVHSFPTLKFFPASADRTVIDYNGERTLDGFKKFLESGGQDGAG
T9 sequence (P07237 235-479 L355R): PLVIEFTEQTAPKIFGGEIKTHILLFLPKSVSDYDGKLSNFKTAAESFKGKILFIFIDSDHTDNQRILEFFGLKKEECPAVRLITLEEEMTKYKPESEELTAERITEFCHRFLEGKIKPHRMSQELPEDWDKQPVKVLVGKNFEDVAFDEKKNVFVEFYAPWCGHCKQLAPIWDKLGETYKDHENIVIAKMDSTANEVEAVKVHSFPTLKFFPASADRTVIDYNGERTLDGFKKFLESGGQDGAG
T8 sequence (P07237 235-479 K328E): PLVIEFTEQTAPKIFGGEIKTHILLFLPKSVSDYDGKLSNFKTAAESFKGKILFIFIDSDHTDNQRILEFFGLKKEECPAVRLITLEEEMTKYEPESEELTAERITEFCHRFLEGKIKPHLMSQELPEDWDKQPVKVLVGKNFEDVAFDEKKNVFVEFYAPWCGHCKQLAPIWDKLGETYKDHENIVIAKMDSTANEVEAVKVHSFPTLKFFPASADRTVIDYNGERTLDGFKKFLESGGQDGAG
T5 sequence (P07237 235-479 E359A): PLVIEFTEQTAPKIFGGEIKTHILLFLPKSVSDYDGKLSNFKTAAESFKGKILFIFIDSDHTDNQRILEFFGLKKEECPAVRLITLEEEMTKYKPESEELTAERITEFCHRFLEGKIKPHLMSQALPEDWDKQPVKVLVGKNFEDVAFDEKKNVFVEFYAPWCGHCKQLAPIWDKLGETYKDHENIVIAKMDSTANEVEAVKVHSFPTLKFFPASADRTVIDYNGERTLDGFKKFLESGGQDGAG
T10 sequence (P07237 235-480): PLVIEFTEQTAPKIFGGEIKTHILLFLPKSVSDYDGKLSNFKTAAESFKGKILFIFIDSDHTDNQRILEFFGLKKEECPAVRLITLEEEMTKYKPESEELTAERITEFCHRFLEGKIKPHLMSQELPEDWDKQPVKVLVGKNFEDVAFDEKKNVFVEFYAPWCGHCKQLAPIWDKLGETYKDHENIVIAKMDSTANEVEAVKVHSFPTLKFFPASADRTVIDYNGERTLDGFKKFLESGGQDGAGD
murine proteins (mPDI), sequence (P09103 236-369): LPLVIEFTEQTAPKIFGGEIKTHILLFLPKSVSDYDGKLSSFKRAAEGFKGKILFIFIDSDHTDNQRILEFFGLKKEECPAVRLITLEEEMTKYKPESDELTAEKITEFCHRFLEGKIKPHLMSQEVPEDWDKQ
T3 sequence (P09103 236-369): as above
T1 sequence (P07237 235-369): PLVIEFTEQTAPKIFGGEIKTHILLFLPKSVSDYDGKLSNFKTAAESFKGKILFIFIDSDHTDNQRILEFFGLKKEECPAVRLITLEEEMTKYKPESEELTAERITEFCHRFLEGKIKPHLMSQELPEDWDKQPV
T2 sequence (P07237 235-479): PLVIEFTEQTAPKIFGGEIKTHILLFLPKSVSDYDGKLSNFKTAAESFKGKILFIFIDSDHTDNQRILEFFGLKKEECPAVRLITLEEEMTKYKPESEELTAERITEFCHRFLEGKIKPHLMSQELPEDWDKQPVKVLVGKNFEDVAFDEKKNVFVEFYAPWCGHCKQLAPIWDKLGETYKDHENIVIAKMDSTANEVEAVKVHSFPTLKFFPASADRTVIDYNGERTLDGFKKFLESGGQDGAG
T4 sequence (P09103 236-477): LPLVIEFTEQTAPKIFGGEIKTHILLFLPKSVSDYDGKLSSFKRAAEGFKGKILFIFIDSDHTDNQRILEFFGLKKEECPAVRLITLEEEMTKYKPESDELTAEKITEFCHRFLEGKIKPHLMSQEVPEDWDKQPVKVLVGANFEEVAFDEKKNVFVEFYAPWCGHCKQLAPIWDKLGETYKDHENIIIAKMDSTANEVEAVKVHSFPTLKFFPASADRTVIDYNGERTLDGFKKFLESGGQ
full-length human PDI, sequence (P07237 18-508): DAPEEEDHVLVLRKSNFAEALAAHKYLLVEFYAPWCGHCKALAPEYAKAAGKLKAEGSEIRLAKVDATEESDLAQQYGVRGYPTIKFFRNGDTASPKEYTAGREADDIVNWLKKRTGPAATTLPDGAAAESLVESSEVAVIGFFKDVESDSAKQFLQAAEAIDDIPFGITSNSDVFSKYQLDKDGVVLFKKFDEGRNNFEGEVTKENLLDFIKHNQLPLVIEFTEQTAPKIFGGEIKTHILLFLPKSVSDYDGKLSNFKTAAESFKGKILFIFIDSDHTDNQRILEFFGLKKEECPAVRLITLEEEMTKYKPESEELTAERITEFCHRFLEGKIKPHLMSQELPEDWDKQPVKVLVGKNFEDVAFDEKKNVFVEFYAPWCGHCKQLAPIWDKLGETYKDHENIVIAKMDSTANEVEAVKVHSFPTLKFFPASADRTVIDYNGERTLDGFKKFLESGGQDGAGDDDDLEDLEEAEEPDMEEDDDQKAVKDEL

Compound: C[C@@H]1O[C@@H](OC[C@H]2O[C@@H](Oc3c(-c4ccc(O)c(O)c4)oc4cc(O)cc(O)c4c3=O)[C@H](O)[C@@H](O)[C@@H]2O)[C@H](O)[C@H](O)[C@H]1O [rutin]
- IC50 (full-length human PDI): 31.1 µM
- IC50 (human MBP-PDI-b′x): 18.7 µM
- IC50 (human MBP-PDI-b′xa′): 28.8 µM
- IC50 (murine MBP-mPDI-b′x): 15.7 µM
- IC50 (murine MBP-mPDI-b′xa′): 26.3 µM
- IC50 (murine proteins (mPDI)): ~30 µM
- Kd (MBP-PDI-b′xa′ E359A): 4.1 ± 0.74 µM
- N (stoichiometry ratio) (MBP-PDI-b′xa′ E359A): 1.18 ± 0.03
- ΔG (MBP-PDI-b′xa′ E359A): -7.39 ± 0.49 kcal/mol
- Kd (MBP-PDI-b′xa′ E359K): 4.48 ± 0.58 µM
- N (stoichiometry ratio) (MBP-PDI-b′xa′ E359K): 1.21 ± 0.02
- ΔG (MBP-PDI-b′xa′ E359K): -7.31 ± 0.45 kcal/mol
- decrease of binding to H354A mutant compared with wt MBP-PDI-b′xa′ (MBP-PDI-b′xa′ H354A; ITC Kd 5.98 vs 2.39 μM): about 3 times
- Kd (MBP-PDI-b′xa′ H354A; ITC, 25 °C, H354A): 5.98 ± 1.08 µM
- N (stoichiometry ratio) (MBP-PDI-b′xa′ H354A; ITC, 25 °C, H354A): 0.72 ± 0.03
- ΔG (MBP-PDI-b′xa′ H354A; ITC, 25 °C, H354A): -7.15 ± 0.86 kcal/mol
- Kd (MBP-PDI-b′xa′ K328E): 2.29 ± 0.36 µM
- N (stoichiometry ratio) (MBP-PDI-b′xa′ K328E): 0.86 ± 0.02
- ΔG (MBP-PDI-b′xa′ K328E): -7.72 ± 0.31 kcal/mol
- Kd (MBP-PDI-b′xa′ L355R): 3.5 ± 0.39 µM
- N (stoichiometry ratio) (MBP-PDI-b′xa′ L355R): 1.93 ± 0.03
- ΔG (MBP-PDI-b′xa′ L355R): -7.46 ± 0.23 kcal/mol
- Kd (wt MBP-PDI-b′xa′): 2.31 µM and 2.39 µM
- solubility (Water solubility): ~200 µM (≈ 122 µg/mL)
- IC50 of inhibition of PDI activities (PDI): micromolar range
- reversal of inhibitory activities on PDI in vivo ([1]; mouse model, infusion of PDI b′x fragment): rapidly reversed
- fibrin generation in vivo [1, 2]: blocked
- platelet aggregation in vivo [1, 2]: blocked
